This note sets out measurements from patent US10426790B2, “Treatment of allergic eye conditions with cyclodextrins” (Aldeyra Therapeutics, Inc., priority 2016, dated 2019).

The subject of data set [1] is subjects with allergic conjunctivitis. Kind of data set: Phase IIa CAPT study, safety and tolerability. The format is in vivo, human. From the text:
Clinical Study Endpoints—Safety Endpoints: (1) number and severity of local and systemic reactions, and other adverse reactions; (2) vital signs; (3) slit lamp examination; (4) visual acuity; (5) non-contact tonometry; and (6) fundus examination.
Study Products and Randomization. For study purposes, NS2 0.5% and NS2 0.0% are both referred to as study drug. NS2 is formulated in eye drops for topical ocular use. The drug product is supplied as single dose unpreserved eye drops at an NS2 concentration of 0.5% (w/v). The formulation is 9.5% sulfobutylether-β-cyclodextrin (SBE-β-CD) in sterile water for injection buffered with sodium phosphate, dibasic and monobasic, and pH adjusted to 7.3.
Dose Administration. NS2 ophthalmic drops (0.5%) or NS2 ophthalmic drops (0.0%) Vehicle are provided as single use blow fill vials. One drop is instilled into each eye four times daily for approximately […].
Adverse Events. An adverse event (AE) is defined as any untoward medical occurrence associated with the use of a drug in humans, whether or not considered drug related. Disease signs, symptoms, and/or laboratory abnormalities already existing prior to the use of the product are not considered AEs after treatment unless they reoccur after the subject has recovered from the pre-existing condition or, in the opinion of the investigator, they represent a clinically significant exacerbation in intensity or frequency. AEs are collected from the time the subject signs the informed consent form until the completion of study. AEs reported prior to dosing are captured and considered non treatment emergent AEs.
Safety Analysis. Safety is evaluated via the following parameters: (a) AEs; (b) Vital signs; (c) Slit lamp examination; (d) Visual acuity; (e) Non-contact tonometry; and (f) Fundus examination.
Cyclodextrin Response in CAPT Model. Cyclodextrin was utilized as vehicle in a Randomized, Parallel, Single-Center, Double-Masked, Vehicle-Controlled Phase II Study to Evaluate the Activity of Study Drug NS2 (i.e., structural formula (I)) Ophthalmic Solution in Subjects with Allergic Conjunctivitis using the Conjunctival Allergen Provocation Test (CAPT). There were initial screening and titrating CAPT visits, followed by confirmatory CAPT visits where the allergen dose which reproducibly causes an ocular allergic reaction was selected. This allergen dose was utilized for the active dosing study phase. A CAPT Onset of Action Visit after a single dose of study drug to each eye on dosing Day 1, Visit 4 (V4), and three post-2 week dosing CAPT visits on active dosing days 14, 15 and 16, V5-7. NS2 and vehicle were dosed 4× daily for 16 days. 100 healthy men and women with at least a 2 year history of allergic conjunctivitis to grass, tree or ragweed pollen were enrolled, randomized 1:1, 50 on NS2 and 50 on vehicle containing cyclodextrin.
The allergic conjunctivitis Phase IIa trial was a randomized, parallel group, double-masked, vehicle-controlled design evaluating the activity of NS2 ophthalmic solution in subjects with allergic conjunctivitis. The trial utilized the Conjunctival Allergen Provocation Test, known as the CAPT, and was conducted at a single center, Inflamax Research in Ontario, Canada, which has considerable experience with the CAPT model.

In data set [2] the test system is subjects with allergic conjunctivitis to grass, tree or ragweed pollen (CAPT). Briefly: Phase IIa Conjunctival Allergen Provocation Test (CAPT) study, activity endpoints. The data set is classed as in vivo, human. The conditions noted are these: for efficacy in treating allergic conjunctivitis, result in words: clinical trial, topical ocular, four times daily about two weeks.
Text: The primary objective of the study is to evaluate the safety and activity of NS2, i.e., compound of structural formula (I), compared to vehicle in the treatment of moderate to severe allergic conjunctivitis in subjects allergic to grass, ragweed or tree allergens following approximately 2 weeks of treatment using the Conjunctival Allergen Provocation Test (CAPT) model.
This double-blind, vehicle-controlled, randomized, parallel group study allows for testing NS2 versus vehicle in subjects with grass, tree or ragweed-induced allergic conjunctivitis in CAPT model. This study consists of 7 or 8 visits to the clinic (a medical screening visit, a titrating CAPT visit, 1 or 2 confirmatory CAPT visits, a CAPT Onset of Action Visit, and three post-2 week dosing CAPT visits) over approximately 9 weeks.
At Visit 4, site staff will update concomitant medications and collect AEs as applicable. Ophthalmic evaluations are conducted (VA, SLE, subject rating of ocular symptoms, and staff grading of conjunctival redness and lid swelling). Subjects must have ocular itching scores of 0 in each eye and conjunctival redness scores of ≤1 in each eye in each region (nasal and temporal) of each eye in order to participate. […] 30 min prior to the CAPT procedure, clinic staff instills one drop of the randomized treatment into each eye. CAPT is then performed using the concentration titration than what reached the positive response at Visit 3 or 3B. Once the CAPT allergen is instilled, subject assessed symptoms and staff assessed signs are collected at 2.5 (+1 min—itching only), 5, 10, 15 min (+2 min), 30, 60, 90, 120, 150, 180 (+5 min). At the end of the visit, subjects are instructed and dispensed their randomized treatment for 2 weeks of at-home qid dosing and their diary card for recording their dosing, AEs, and concomitant medications. Subjects are scheduled to return for Visit 5 in 2 weeks.
(§1) At Visit 5, site staff will update concomitant medications and collect AEs as applicable. Ophthalmic evaluations are conducted (VA, SLE, subject rating of ocular symptoms, and staff grading of conjunctival redness and lid swelling). Approximately 10 μL of basal tears is collected from both eyes for cytokine analysis prior to drug instillation and CAPT. 30 min prior to the CAPT procedure, clinic staff instills one drop of the randomized treatment into each eye. CAPT is then performed using the concentration titration than what reached the positive response at Visit 3 or 3B. Once the CAPT allergen is instilled, subject assessed symptoms and staff assessed signs are collected at 2.5 (+1 min—itching only), 5, 10, 15 min (+2 min), 30, 60, 90, 120, 150, 180 min (+5 min). Following CAPT instillation, tear collection is begun at the 35 min (+15 min) mark, and approximately 10 μL of basal tears is collected from both eyes.
as §1, with “Visit 6,” for “Visit 5,”, “swelling).” for “swelling). Approximately 10 μL of basal tears is collected from both eyes for cytokine analysis prior to drug instillation and CAPT.”, “min).” for “min). Following CAPT instillation, tear collection is begun at the 35 min (+15 min) mark, and approximately 10 μL of basal tears is collected from both eyes.”
At Visit 7, site staff will update concomitant medications and collect AEs as applicable. Ophthalmic evaluations are conducted (VA, SLE, subject rating of ocular symptoms, and staff grading of conjunctival redness and lid swelling). 30 min prior to the CAPT procedure, clinic staff instills one drop of the randomized treatment into each eye. CAPT is then performed using the concentration titration than what reached the positive response at Visit 3 or 3B. […]

Where [3] appears, read: 16 days of dosing four times per day, 50 subjects.
Setting [4] is: CAPT, Day 1 single dose and multiple days dosing, NS2 0.5% vs vehicle (9.5% SBE-β-CD).

“Also recorded” adds a separate entry of the source.

Regarding `CC(C)(O)c1nc2ccc(Cl)cc2cc1N` [NS2], in data set [1] (setting [3]), the “patients of the drug group who withdrew from the study (stinging)” value is reported as 2 patients and the “patients of the drug group who withdrew from the study (stinging), percent” value came to 4%. In addition, the “stinging/burning adverse events reported as moderate” value in data set [1] (NS2 group) is reported as “less than 10%”. For the same compound, the “frequency of stinging and or burning” value in data set [1] (NS2 group vs vehicle) is listed as “increased frequency”. Also, the “tolerability, result in words” value in data set [1] (topical ocular 0.5%, 4x daily, 16 days) is “generally well tolerated”. Further, in data set [1] (whole study), the serious adverse events result is reported as “no serious adverse events”. In addition, the “duration of clinical efficacy following each CAPT challenge” value in data set [2] (3 hours studied after each CAPT challenge) is at least 3 h. In data set [2] (setting [4]), the “ocular itching score, result in words” value was “statistically significant differences; also recorded: greater effect; also recorded: exceeding one point reductions” and the “ocular tearing score, result in words” value was “statistically significant differences; also recorded: greater effect; also recorded: exceeding one point reductions”. Besides, the “lid swelling, frequency and pattern, result in words” value in data set [2] (CAPT, NS2 vs vehicle) is reported as “appeared similar”. Further, the “efficacy in treating allergic conjunctivitis, result in words” value in data set [2] is on record as “greater effect”.
As to sulfobutylether-β-cyclodextrin, the “efficacy in treating allergic conjunctivitis, result in words” value in data set [2] is “high response rates and significant efficacy”.
